{"source": "the NIST ThermoML archive (doi:10.1016/j.jct.2010.08.019)", "assay": "refractive index (Na D-line) (dimensionless); xn = mol fraction of the nth substance listed", "details": "101 kPa, Liquid, Standard Abbe refractometry", "note": "Numbers after ± are expanded uncertainties."}
{"smiles": "C1CCOCC1", "note": "[tetrahydropyran] + CC(C)O", "values": [{"measurement": "refractive index", "setting": "293.15 K, x2 = 0", "value": "1.39161 ± 0.00037"}, {"measurement": "refractive index", "setting": "293.15 K, x2 = 0.0501", "value": "1.39085 ± 0.00037"}, {"measurement": "refractive index", "setting": "293.15 K, x2 = 0.0999", "value": "1.3902 ± 0.00036"}, {"measurement": "refractive index", "setting": "293.15 K, x2 = 0.1499", "value": "1.38954 ± 0.00036"}, {"measurement": "refractive index", "setting": "293.15 K, x2 = 0.2003", "value": "1.38897 ± 0.00036"}, {"measurement": "refractive index", "setting": "293.15 K, x2 = 0.2506", "value": "1.38839 ± 0.00036"}, {"measurement": "refractive index", "setting": "293.15 K, x2 = 0.2999", "value": "1.38777 ± 0.00035"}, {"measurement": "refractive index", "setting": "293.15 K, x2 = 0.35", "value": "1.38719 ± 0.00035"}, {"measurement": "refractive index", "setting": "293.15 K, x2 = 0.3999", "value": "1.3866 ± 0.00035"}, {"measurement": "refractive index", "setting": "293.15 K, x2 = 0.4499", "value": "1.38599 ± 0.00035"}, {"measurement": "refractive index", "setting": "293.15 K, x2 = 0.5001", "value": "1.38539 ± 0.00035"}, {"measurement": "refractive index", "setting": "293.15 K, x2 = 0.5502", "value": "1.38478 ± 0.00034"}, {"measurement": "refractive index", "setting": "293.15 K, x2 = 0.6001", "value": "1.38415 ± 0.00034"}, {"measurement": "refractive index", "setting": "293.15 K, x2 = 0.6499", "value": "1.38347 ± 0.00034"}, {"measurement": "refractive index", "setting": "293.15 K, x2 = 0.7001", "value": "1.3827 ± 0.00034"}, {"measurement": "refractive index", "setting": "293.15 K, x2 = 0.7499", "value": "1.38194 ± 0.00034"}, {"measurement": "refractive index", "setting": "293.15 K, x2 = 0.8", "value": "1.38113 ± 0.00033"}, {"measurement": "refractive index", "setting": "293.15 K, x2 = 0.8501", "value": "1.38021 ± 0.00033"}, {"measurement": "refractive index", "setting": "293.15 K, x2 = 0.9001", "value": "1.37932 ± 0.00033"}, {"measurement": "refractive index", "setting": "293.15 K, x2 = 0.9499", "value": "1.37832 ± 0.00033"}, {"measurement": "refractive index", "setting": "303.15 K, x2 = 0", "value": "1.3866 ± 0.00037"}, {"measurement": "refractive index", "setting": "303.15 K, x2 = 0.0502", "value": "1.38571 ± 0.00037"}, {"measurement": "refractive index", "setting": "303.15 K, x2 = 0.1001", "value": "1.38505 ± 0.00036"}, {"measurement": "refractive index", "setting": "303.15 K, x2 = 0.1501", "value": "1.38441 ± 0.00036"}, {"measurement": "refractive index", "setting": "303.15 K, x2 = 0.1998", "value": "1.38377 ± 0.00036"}, {"measurement": "refractive index", "setting": "303.15 K, x2 = 0.2499", "value": "1.3832 ± 0.00036"}, {"measurement": "refractive index", "setting": "303.15 K, x2 = 0.3", "value": "1.38259 ± 0.00035"}, {"measurement": "refractive index", "setting": "303.15 K, x2 = 0.3499", "value": "1.38201 ± 0.00035"}, {"measurement": "refractive index", "setting": "303.15 K, x2 = 0.4001", "value": "1.38144 ± 0.00035"}, {"measurement": "refractive index", "setting": "303.15 K, x2 = 0.4501", "value": "1.38087 ± 0.00035"}, {"measurement": "refractive index", "setting": "303.15 K, x2 = 0.5001", "value": "1.38026 ± 0.00035"}, {"measurement": "refractive index", "setting": "303.15 K, x2 = 0.55", "value": "1.37965 ± 0.00034"}, {"measurement": "refractive index", "setting": "303.15 K, x2 = 0.6", "value": "1.37903 ± 0.00034"}, {"measurement": "refractive index", "setting": "303.15 K, x2 = 0.65", "value": "1.37841 ± 0.00034"}, {"measurement": "refractive index", "setting": "303.15 K, x2 = 0.6999", "value": "1.37775 ± 0.00034"}, {"measurement": "refractive index", "setting": "303.15 K, x2 = 0.7499", "value": "1.37704 ± 0.00034"}, {"measurement": "refractive index", "setting": "303.15 K, x2 = 0.8001", "value": "1.37633 ± 0.00033"}, {"measurement": "refractive index", "setting": "303.15 K, x2 = 0.85", "value": "1.37553 ± 0.00033"}, {"measurement": "refractive index", "setting": "303.15 K, x2 = 0.8998", "value": "1.37469 ± 0.00033"}, {"measurement": "refractive index", "setting": "303.15 K, x2 = 0.9499", "value": "1.3738 ± 0.00033"}, {"measurement": "refractive index", "setting": "313.15 K, x2 = 0", "value": "1.38143 ± 0.00037"}, {"measurement": "refractive index", "setting": "313.15 K, x2 = 0.05", "value": "1.38065 ± 0.00037"}, {"measurement": "refractive index", "setting": "313.15 K, x2 = 0.1", "value": "1.37995 ± 0.00036"}, {"measurement": "refractive index", "setting": "313.15 K, x2 = 0.1501", "value": "1.37929 ± 0.00036"}, {"measurement": "refractive index", "setting": "313.15 K, x2 = 0.2", "value": "1.37868 ± 0.00036"}, {"measurement": "refractive index", "setting": "313.15 K, x2 = 0.2499", "value": "1.37807 ± 0.00036"}, {"measurement": "refractive index", "setting": "313.15 K, x2 = 0.2997", "value": "1.37748 ± 0.00035"}, {"measurement": "refractive index", "setting": "313.15 K, x2 = 0.3499", "value": "1.37692 ± 0.00035"}, {"measurement": "refractive index", "setting": "313.15 K, x2 = 0.4", "value": "1.37632 ± 0.00035"}, {"measurement": "refractive index", "setting": "313.15 K, x2 = 0.4504", "value": "1.37573 ± 0.00035"}, {"measurement": "refractive index", "setting": "313.15 K, x2 = 0.5001", "value": "1.37513 ± 0.00035"}, {"measurement": "refractive index", "setting": "313.15 K, x2 = 0.55", "value": "1.37457 ± 0.00034"}, {"measurement": "refractive index", "setting": "313.15 K, x2 = 0.5999", "value": "1.37399 ± 0.00034"}, {"measurement": "refractive index", "setting": "313.15 K, x2 = 0.65", "value": "1.37339 ± 0.00034"}, {"measurement": "refractive index", "setting": "313.15 K, x2 = 0.7001", "value": "1.3728 ± 0.00034"}, {"measurement": "refractive index", "setting": "313.15 K, x2 = 0.7502", "value": "1.37216 ± 0.00034"}, {"measurement": "refractive index", "setting": "313.15 K, x2 = 0.7999", "value": "1.37151 ± 0.00033"}, {"measurement": "refractive index", "setting": "313.15 K, x2 = 0.85", "value": "1.37081 ± 0.00033"}, {"measurement": "refractive index", "setting": "313.15 K, x2 = 0.8998", "value": "1.37005 ± 0.00033"}, {"measurement": "refractive index", "setting": "313.15 K, x2 = 0.9498", "value": "1.36931 ± 0.00033"}, {"measurement": "refractive index", "setting": "323.15 K, x2 = 0", "value": "1.37627 ± 0.00037"}, {"measurement": "refractive index", "setting": "323.15 K, x2 = 0.05", "value": "1.3752 ± 0.00037"}, {"measurement": "refractive index", "setting": "323.15 K, x2 = 0.1", "value": "1.37442 ± 0.00036"}, {"measurement": "refractive index", "setting": "323.15 K, x2 = 0.1501", "value": "1.37378 ± 0.00036"}, {"measurement": "refractive index", "setting": "323.15 K, x2 = 0.2", "value": "1.37312 ± 0.00036"}, {"measurement": "refractive index", "setting": "323.15 K, x2 = 0.2499", "value": "1.37252 ± 0.00036"}, {"measurement": "refractive index", "setting": "323.15 K, x2 = 0.2997", "value": "1.37192 ± 0.00036"}, {"measurement": "refractive index", "setting": "323.15 K, x2 = 0.3499", "value": "1.37127 ± 0.00035"}, {"measurement": "refractive index", "setting": "323.15 K, x2 = 0.4", "value": "1.37072 ± 0.00035"}, {"measurement": "refractive index", "setting": "323.15 K, x2 = 0.4504", "value": "1.37012 ± 0.00035"}, {"measurement": "refractive index", "setting": "323.15 K, x2 = 0.5001", "value": "1.3695 ± 0.00035"}, {"measurement": "refractive index", "setting": "323.15 K, x2 = 0.5501", "value": "1.36901 ± 0.00034"}, {"measurement": "refractive index", "setting": "323.15 K, x2 = 0.6", "value": "1.36843 ± 0.00034"}, {"measurement": "refractive index", "setting": "323.15 K, x2 = 0.65", "value": "1.36789 ± 0.00034"}, {"measurement": "refractive index", "setting": "323.15 K, x2 = 0.6999", "value": "1.36729 ± 0.00034"}, {"measurement": "refractive index", "setting": "323.15 K, x2 = 0.7502", "value": "1.36664 ± 0.00034"}, {"measurement": "refractive index", "setting": "323.15 K, x2 = 0.8002", "value": "1.36608 ± 0.00033"}, {"measurement": "refractive index", "setting": "323.15 K, x2 = 0.8501", "value": "1.36542 ± 0.00033"}, {"measurement": "refractive index", "setting": "323.15 K, x2 = 0.8998", "value": "1.36485 ± 0.00033"}, {"measurement": "refractive index", "setting": "323.15 K, x2 = 0.9501", "value": "1.3642 ± 0.00033"}]}
